Results on 8 molecules are retold here after patent US20230061736A1, “GPR119 AGONISTS” (Kallyope, Inc., priority 2019, published 2023).

Where only a bound is given, the exact number is not on record here.

The assay addresses T1, human GPR119 (hGPR119) (Homo sapiens, UniProt Q8TDV5).
T1 construct: expressed in transfected cells
T1 sequence (Q8TDV5 1-335): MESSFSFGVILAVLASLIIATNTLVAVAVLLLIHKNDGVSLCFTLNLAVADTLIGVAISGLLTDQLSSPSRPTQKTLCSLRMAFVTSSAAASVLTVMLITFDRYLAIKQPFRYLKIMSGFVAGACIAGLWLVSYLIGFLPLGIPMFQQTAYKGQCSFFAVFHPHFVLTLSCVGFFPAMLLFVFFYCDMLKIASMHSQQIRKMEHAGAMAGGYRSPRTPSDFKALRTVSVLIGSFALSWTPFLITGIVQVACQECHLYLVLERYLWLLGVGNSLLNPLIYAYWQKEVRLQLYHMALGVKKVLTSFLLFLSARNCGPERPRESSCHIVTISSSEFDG
Kind of assay: cAMP accumulation assay (cAMP Gs dynamic HTRF kit). Type of assay: cell-based. The following applies: CHO-K1 cells stably expressing hGPR119, 4-parameter fit; for Emax: 1 h, % activity normalized to Max/Min controls; for EC50: cAMP accumulation. The gist of the method: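 CHO-K1 cells stably expressing hGPR119, used as assay-ready frozen stocks at ~10,000 cells/well, exposed to compound dose-response in stimulation buffer with Tween 80 for 60 min at 37° C. cAMP read by HTRF (665/620 nm ratio), normalised to Max/Min controls; EC50 and Max activity from 4-parameter fit.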
Background: cAMP levels reflect the balance of adenylyl cyclase and phosphodiesterase activity.

The Emax is the maximal effect, on the per cent scale that the assay sets. Usually EC50 stands for the concentration at which the effect is half-maximal. Read a low EC50 as an effect from little substance.

The molecule `O=C(Cc1c(F)cc(OCCCC2CCN(c3ncc(Cl)cn3)CC2)cc1F)N1CC[C@@H](CNCC(O)(CO)CO)C1` [Example 150, 2-[4-[3-[1-(5-chloropyrimidin-2-yl)-4-piperidyl]propoxy]-2,6-difluoro-phenyl]-1-[(3S)-3-[[[2,3-dihydroxy-2-(hydroxymethyl)propyl]amino]methyl]pyrrolidin-1-yl]ethanone] gave a maximum response (Emax) of 100 to 130% and a 50% effective concentration (EC50) not above 100 nM.
For `O=C(Cc1c(F)cc(OCCCC2CCN(c3ncc(Cl)cn3)CC2)cc1F)N1CC[C@@H](CNCC(CO)(CO)CO)C1` [Example 151, 2-[4-[3-[1-(5-chloropyrimidin-2-yl)-4-piperidyl]propoxy]-2,6-difluoro-phenyl]-1-[(3S)-3-[[[3-hydroxy-2,2-bis(hydroxymethyl)propyl]amino]methyl]pyrrolidin-1-yl]ethanone], the maximal response (Emax) is not below 130% and the EC50 is not above 100 nM.
`CCOc1cnc(N2CCC(CCCOc3ccc(CC(=O)N4CC[C@@H](CNC(CO)(CO)CO)C4)c(F)c3)CC2)nc1` [Example 152, 2-[4-[3-[1-(5-ethoxypyrimidin-2-yl)-4-piperidyl]propoxy]-2-fluoro-phenyl]-1-[(3S)-3-[[[2-hydroxy-1,1-bis(hydroxymethyl)ethyl]amino]methyl]pyrrolidin-1-yl]ethanone] returned an Emax not below 130% and an EC50 not above 100 nM.
Consider `CCOc1cnc(N2CCC(CCCOc3ccc(CC(=O)N4CC[C@@H](CNCC(O)(CO)CO)C4)c(F)c3)CC2)nc1` [Example 153, 2-[4-[3-[1-(5-ethoxypyrimidin-2-yl)-4-piperidyl]propoxy]-2-fluoro-phenyl]-1-[(3S)-3-[[[2,3-dihydroxy-2-(hydroxymethyl)propyl]amino]methyl]pyrrolidin-1-yl]ethanone], for which the Emax is not below 130% and the half-maximal effective concentration (EC50) was not above 100 nM.
For `CCOc1cnc(N2CCC(CCCOc3ccc(CC(=O)N4CC[C@@H](CNCC(CO)(CO)CO)C4)c(F)c3)CC2)nc1` [Example 154, 2-[4-[3-[1-(5-ethoxypyrimidin-2-yl)-4-piperidyl]propoxy]-2-fluoro-phenyl]-1-[(3S)-3-[[[3-hydroxy-2,2-bis(hydroxymethyl)propyl]amino]methyl]pyrrolidin-1-yl]ethanone], the maximal effect (Emax) was 100 to 130% and the EC50 is not above 100 nM.
Take `CCOc1cnc(N2CCC(CCCOc3cc(F)c(CC(=O)N4CC[C@@H](CNCC(O)(CO)CO)C4)c(F)c3)CC2)nc1` [Example 156, 2-[4-[3-[1-(5-ethoxypyrimidin-2-yl)-4-piperidyl]propoxy]-2,6-difluoro-phenyl]-1-[(3S)-3-[[[2,3-dihydroxy-2-(hydroxymethyl)propyl]amino]methyl]pyrrolidin-1-yl]ethanone]: the maximal effect (Emax) is not below 130% and the EC50 is not above 100 nM.
In the case of `CCOc1cnc(N2CCC(CCCOc3cc(F)c(CC(=O)N4CC[C@@H](CNCC(CO)(CO)CO)C4)c(F)c3)CC2)nc1` [Example 157, 2-[4-[3-[1-(5-ethoxypyrimidin-2-yl)-4-piperidyl]propoxy]-2,6-difluoro-phenyl]-1-[(3S)-3-[[[3-hydroxy-2,2-bis(hydroxymethyl)propyl]amino]methyl]pyrrolidin-1-yl]ethanone], the Emax was not below 130% and the concentration giving a half-maximal response (EC50) is not above 100 nM.
The matching figures for `COCc1cnc(N2CCC(CCCOc3cc(F)c(CC(=O)N4CC[C@@H](CNC(CO)(CO)CO)C4)c(F)c3)CC2)nc1` [Example 158, 2-[2,6-difluoro-4-[3-[1-[5-(methoxymethyl)pyrimidin-2-yl]-4-piperidyl]propoxy]phenyl]-1-[(3S)-3-[[[2-hydroxy-1,1-bis(hydroxymethyl)ethyl]amino]methyl]pyrrolidin-1-yl]ethanone]: 100 to 130% and not above 100 nM.
